Five molecules from publication PMC6100046, “Plasma Pharmacokinetic Determination of Canagliflozin and Its Metabolites in a Type 2 Diabetic Rat Model by UPLC-MS/MS” (Molecules : A Journal of Synthetic Chemistry and Natural …, 2018) can be followed below.

Like-named read-outs stand apart in the source and are kept apart here.

A short description of data set [1]: Plasma pharmacokinetics of canagliflozin and its metabolites after oral administration to CTRL and type 2 diabetic (DM) rats, UPLC-MS/MS. It counts as in vivo, rat. The following applies: for Concentration of metabolite in rat plasma (in words): rat plasma after canagliflozin, UPLC-TOF-MS/MS identification; for Tmax / half-life / Cmax / AUC(0-inf) / MRT last: po; for half-life: read-out: t1/2z (converted); for Cmax: metabolites semi-quantitative; for AUC(0-inf): AUC0–∞, heading: AUC0–∞; for MRT last: read-out: MRT0–t. The text has this: The determination of metabolite concentrations was done by a semi-quantitative analysis method: the peak area of the metabolites was divided by the peak area of the original drug and then multiplied by the concentration of original drug.
The type 2 diabetic model was developed using a combination of a high-fat diet (HFD) and low-dose STZ injection. Briefly, rats were randomized into CTRL (control) and DM (diabetes mellitus) groups. The CTRL rats received a standard diet, whereas DM rats were fed high-fat food, which consisted of 63.5–66.5% normal chow, 1% cholesterol, 0.5% sodium cholate, 10% yolk, 12–15% lard, and 10% sucrose. DM rats were given an intraperitoneal injection of STZ (35 mg/kg, dissolved in citrate buffer, pH 4.5) after 4 weeks of dietary alteration, and CTRL rats received an equivalent injection of citrate buffer only. The blood glucose concentrations, food intake, and body weights of the rats were monitored weekly. Rats with non-fasting blood glucose levels lower than 16.67 mmol/L (300 mg/dL) were excluded from the DM group. Biochemical parameters (serum triglycerides, serum total cholesterol, and insulin) were measured on day 28 after the injection of STZ. The homeostasis model assessment of insulin resistance (HOMA-IR) was calculated by a standard equation to examine insulin sensitivity. The following experiments were performed on day 35 after STZ injection.
We performed the pharmacokinetic studies of canagliflozin after oral administration by gavage, and all rats used in this research were fasted for 12 h before dosing. CTRL and DM group rats (5 rats in each group) received a dose of canagliflozin at 20 mg/kg that was suspended in 0.5% sodium carboxymethylcellulose. A blood quantity of less than 0.3 mL was sampled via the oculi chorioideae vein after administration of canagliflozin at 1, 2, 3, 4, 5, 6, 7, 8, 10, 12, 24, 36 and 48 h under light ether anesthesia. All blood samples were immediately centrifuged at 5000 rpm for 10 min and the plasma was collected and frozen at −40 °C until analysis.
The acquisition software used were Analyst TF 1.7.1 software and Analyst software (AB Sciex, Redwood city, CA, USA). The pharmacokinetic parameters were processed by non-compartmental analysis using DAS 2.1.1 software (Mathematical Pharmacology Professional Committee of China, Shanghai, China). Data are presented as means ± SDs. Statistical differences were evaluated by Student’s t-test. A p-value of less than 0.05 indicated a statistically significant difference (SPSS 18.0 software, SPSS Inc., Chicago, IL, USA).

The nature of data set [2]: Stability of canagliflozin in rat plasma samples (QC samples). Type of data set: in vitro ADME. The following applies: for Concentration found after storage (Mean ± SD): rat plasma, n = 5. The procedure: High, medium and low levels of QC concentrations were used to evaluate the stability of canagliflozin in plasma under the experimental conditions.
The specificity of the method was evaluated by comparing the chromatography of rat blank plasma samples with blank rat plasma spiked with standards at high, medium, low concentrations including LLOQ and rat plasma samples after oral administration of canagliflozin. The intra-day accuracy and precision were determined by analyzing five replicates of the QC samples at high, medium, and low concentrations within one day, while the inter-day accuracy and precision were conducted by determining five replicates of four levels of QCs on 3 separate days. The assay’s accuracy was represented by the […]. The precision was represented as the relative standard deviation (RSD) of the replicates. The matrix effect was determined by dividing the peak areas of canagliflozin spiked into extracted blank plasma by that of the analyte spiked in the mobile phase. The extraction recovery of canagliflozin and IS was assessed by comparing the peak areas of extracted plasma. […] […] The freeze (−80 °C)–thaw (room temperature) stability of the analytes in rat plasma was tested via three freeze–thaw cycles. […] In regard to the storage stability, the QC samples were prepared and stored at −80 °C for 30 days.

[3] abbreviates: rat, plasma, 20 mg/kg, CTRL rats, canagliflozin 20 mg/kg oral, mean ± SD, n = 5.
[4] abbreviates: rat, plasma, 20 mg/kg, DM (type 2 diabetic) rats, canagliflozin 20 mg/kg oral, mean ± SD, n = 5.

The Tmax is the time from dosing to the highest level. In general, Cmax refers to the highest concentration seen after dosing. Take `Cc1ccc(C2OC(CO)C(O)C(O)C2O)cc1C(O)c1ccc(-c2ccc(F)cc2)s1` (stereo not shown) [M9]: the “Concentration of metabolite in rat plasma (in words)” value (from here on “Concentration of metabolite”) in data set [1] is recorded as “high”. Moreover, in data set [1] (setting [3]), the Tmax is 5.01 ± 0.11 h, the half-life was 10.7 ± 1.63 h and the peak concentration (Cmax) stood at 97.5 ± 10.8 ng/mL. In data set [1] (setting [4]), the Cmax worked out at 161 ± 10.5 ng/mL, the Tmax stood at 4.75 ± 0.5 h and the half-life was 12.8 ± 8.81 h.

Consider `Cc1ccc(C2OC(CO)C(O)C(OC3OC(C(=O)O)C(O)C(O)C3O)C2O)cc1Cc1ccc(-c2ccc(F)cc2)s1` (stereo not shown) [M7], for which the “Concentration of metabolite” value in data set [1] is recorded as “high”. In data set [1] (setting [3]), the Tmax stood at 2.02 ± 0.11 h, the half-life was 10 ± 6.45 h and the Cmax worked out at 44.9 ± 20.5 ng/mL. In data set [1] (setting [4]), the Cmax turned out to be 90.6 ± 18.7 ng/mL, the Tmax was 1.81 ± 0.12 h and the half-life was 14.5 ± 4.86 h.

Consider `Cc1ccc(C2OC(CO)C(O)C(O)C2OC2OC(C(=O)O)C(O)C(O)C2O)cc1Cc1ccc(-c2ccc(F)cc2)s1` (stereo not shown) [M5], for which the “Concentration of metabolite” value in data set [1] is given as “high”. Besides, in data set [1] (setting [3]), the time to peak (Tmax) was found to be 1.8 ± 0.84 h, the half-life is 14.6 ± 18.3 h and the Cmax is 126 ± 31.1 ng/mL. Also, in data set [1] (setting [4]), the highest concentration (Cmax) worked out at 160 ± 54.4 ng/mL, the Tmax was determined as 1.67 ± 0.58 h and the half-life is 13.3 ± 6.25 h.

Broadly, the CL/F is the apparent clearance, not corrected for the fraction that reaches the circulation. In general, AUC(0-inf) refers to the area under the concentration-time curve extrapolated to infinity. `Cc1ccc([C@@H]2O[C@H](CO)[C@@H](O)[C@H](O)[C@H]2O)cc1Cc1ccc(-c2ccc(F)cc2)s1` [Canagliflozin]: the “Stability in rat plasma (in words)” value is “good stability” in data set [2] (auto-sampler temperature (4 °C), 24 h); “stable” in data set [2] (room temperature (25 °C) for 24 h); “stable” in data set [2] (storage conditions (−80 °C) for at least 30 days); “good stability” in data set [2] (−80 °C followed by three freeze and thaw cycles). In addition, the Concentration found after storage (Mean ± SD) in data set [2] (autosampler (4 °C) for 24 h, nominal concentration 25) amounted to 25.7 ± 0.33 ng/mL; in data set [2] (autosampler (4 °C) for 24 h, nominal concentration 500), 503.1 ± 4.41 ng/mL; in data set [2] (autosampler (4 °C) for 24 h, nominal concentration 800) it was 806.8 ± 5.64 ng/mL; in data set [2] (room temperature (25 °C) for 24 h, nominal concentration 25), 26.2 ± 0.96 ng/mL; in data set [2] (room temperature (25 °C) for 24 h, nominal concentration 500), 504.4 ± 3.18 ng/mL; in data set [2] (room temperature (25 °C) for 24 h, nominal concentration 800), 807.3 ± 6.12 ng/mL. Moreover, the Concentration found after storage (Mean ± SD) came to 26 ± 1.02 ng/mL in data set [2] (three freeze–thaw cycles (each at −80 °C for 24 h), nominal concentration 25); 505.2 ± 4.12 ng/mL in data set [2] (three freeze–thaw cycles (each at −80 °C for 24 h), nominal concentration 500); 806.2 ± 4.19 ng/mL in data set [2] (three freeze–thaw cycles (each at −80 °C for 24 h), nominal concentration 800); 26.9 ± 0.85 ng/mL in data set [2] (−80 °C for 30 days, nominal concentration 25); 504.3 ± 2.14 ng/mL in data set [2] (−80 °C for 30 days, nominal concentration 500); 806.3 ± 3.51 ng/mL in data set [2] (−80 °C for 30 days, nominal concentration 800). In addition, the apparent clearance CL/F in data set [1] (rat, plasma, 20 mg/kg, heading: CLz/F, CTRL rats, canagliflozin 20 mg/kg oral, mean ± SD, n = 5) was determined as 5.96 mL/min/kg. Also, the AUC(0-inf) is 56300 ng·h/mL in data set [1] (rat, plasma, 20 mg/kg, CTRL rats, canagliflozin 20 mg/kg oral, plasma, mean ± SD, n = 5) and 28400 ng·h/mL in data set [1] (rat, plasma, 20 mg/kg, DM (type 2 diabetic) rats, canagliflozin 20 mg/kg oral, plasma, mean ± SD, n = 5). Also, the values for the Tmax in data set [1] (setting [3]) and in data set [1] (setting [4]) were 3.6 ± 0.89 h and 3.2 ± 0.45 h, respectively. Further, the results for the MRT last in data set [1] (setting [3]) and in data set [1] (setting [4]) were 14.1 ± 1.58 h and 12.3 ± 2.77 h, respectively. Further, the half-life in data set [1] (setting [3]) is 12.9 ± 2.64 h; in data set [1] (setting [4]), 10.2 ± 3.49 h. In addition, the peak concentration (Cmax) in data set [1] (setting [3]) was found to be 3310 ± 566 ng/mL; in data set [1] (setting [4]), 2230 ± 559 ng/mL.

`OCc1ccc([C@@H]2O[C@H](CO)[C@@H](O)[C@H](O)[C@H]2O)cc1Cc1ccc(-c2ccc(F)cc2)s1` [M8]: the “Concentration of metabolite” value in data set [1] is listed as “almost too low to quantify”.
